The values below come from PMC5954004, “19th European Symposium on Radiopharmacy and Radiopharmaceuticals (ESRR’18)” (EJNMMI Radiopharmacy and Chemistry, 2018).

Like-named read-outs stand apart in the source and are kept apart here. *1 amine or outer side, *2 acyl side, *3 side chain or, on linkers, in order; H or OH if unused. Where a SMILES comes first, the peptide text is derived from it. Bridges are numbered along the chain shown (N, C = ends). Where no end group is shown, it is not given here. [ ]: non-standard residue; d: D form. X1 = O=C([C@@H]1CCN=C2C(N[*:1])=Cc3cc(O)c(O)cc3N21)[*:2]; X2 = O=CN(O)CCC[C@H](N[*:1])C(=O)[*:2]; Suc = O=C(CCC(=O)[*:2])[*:1] Bounds are passed on as bounds.

For one data set, the target named is T1, AT1R (Homo sapiens, UniProt P30556).
T1 construct: using AT1R-positive MDA-MB-231 breast cancer cells; endogenous in cells
Description: in vitro AT1R binding studies. Conditions: MDA-MB-231 and CHO AT1R cells vs AT1R-negative CHO cells, 4 °C, one hour, with or without losartan potassium 100 μM. Type of data set: cell-based. The procedure: Methods: ^19F-AmBF3-losartan was prepared via a copper-catalyzed alkyne-AmBF3 and azide-modified losartan cycloaddition at 45 °C for two hours, followed by semi-preparative HPLC purification. Then, ^19F-AmBF3-losartan (25 nmol, 15.3 μg) was radiolabeled with fluoride-18 (555-925 MBq) via an ^18F–^19F isotope exchange reaction in aqueous phase at 80 °C for 20 minutes and purified by solid phase extraction using a C18 Light Sep-Pak cartridge. In vitro AT1R binding studies were performed at 4 °C for one hour using AT1R-positive MDA-MB-231 breast cancer cells, AT1R-expressing CHO AT1R cells, and AT1R-negative CHO cells. The in vitro studies were conducted in presence or absence of the AT1R blocker losartan potassium (100 μM). AT1R expression in cells was confirmed by quantitative real-time reverse transcription polymerase chain reaction (RT-PCR).

Data set [1] is described as follows: logP of 68Ga-TAFC derivatives. The format is physicochemical. Conditions: 68Ga-labelled. The procedure:
Stability, protein binding and logP values were determined.

The conditions of data set [2]: human, serum.
Description: Protein binding, partition coefficient and stability values of ^68Ga-pyoverdine in human serum and in the excess of competing chelator and metal were determined.
The subject of another data set is T47D^+. Description: total cell bound tracer, T47D+. The note with it: 1h incubation.
A further data set concerns PC-3^+. Description: total cell bound tracer, PC-3+. The note with it: 1h incubation.
In a further data set the test system is LNCaP. Description: total cell bound tracer, LNCaP. Conditions: 1h incubation.
The test system of another data set is MDA-MB-231^+. As to the kind of experiment: total cell bound tracer, MDA-MB-231+. The note with it: 1h incubation.
In data set [3] the test system is Her-2-positive (HCC1954) cell line. Description: cell binding and internalisation, HCC1954. Type of data set: cell-based. Conditions: controls.
Description: Radiopharmaceuticals (0.19 MBq/μg) were tested for their internalisation and effects on viability (dye exclusion) and clonogenicity of Her-2-positive (HCC1954) and –negative (MDA-MB-231) cell lines.
For another data set, the system named is COX-1. Conditions: cited from earlier work. The text has this:
(§1) Aim: Neolignan 4’-O-methylhonokiol (MH) isolated from Magnolia grandiflora is known to have several biological activities, including anti-cancer, anti-inflammatory and anti-neurodegenerative effects. […] The development of COX-2 inhibitor radiolabeled analogs is of special interest for PET visualization of inflammation and tumors.

For another data set, the system named is COX-2. The note with it: cited from earlier work.
Text: as §1

For another data set, the system named is RBCs. As to the kind of experiment: RBC radiolabelling. Type of data set: cell-based.
For data set [4] the following is noted: adult, 740 MBq; ref summary of products characteristics; cited from earlier work.
A further data set can be described thus: cysteine challenge. Type of data set: physicochemical. Conditions: 100 fold molar excess, up to 2 hours. The protocol: Cysteine challenge (100 fold molar excess) was also performed.
A further data set concerns MCF-7 cells. As to the kind of experiment: cellular uptake, internalization and membrane binding. Type of data set: cell-based.
Another data set relates to A431-CCK2R cells. As to the kind of experiment: internalisation into A431-CCK2R cells. Type of data set: cell-based, human.
For data set [5] the following is noted: after 10 min, BALB/c mice in vivo. The procedure:
(§2) Methods: The new MG analogue DOTA-MGS5 was designed based on a combination of the substitutions applied in peptide derivatives previously developed by our group (1). The in vitro and in vivo characterisation after radiolabelling with In-111 and Lu-177 included stability analyses of the radioligands incubated in rat tissue homogenates and after injection into BALB/c mice. Receptor interaction in terms of receptor affinity and cell uptake was analysed using A431 human epidermoid carcinoma cells transfected with human CCK2R (A431-CCK2R) and mock-transfected cells (A431-mock). The targeting potential was evaluated by small animal dual modality single photon emission computed tomography (NanoSPECT/CT) as well as ex vivo biodistribution studies in tumour bearing BALB/c nude mice up to 4 h after injection.

The nature of another data set: in vivo. The note with it: BALB/c nude, mouse, A431-CCK2R tumour, total radioactivity, tumour uptake, 4 h p.i. The protocol: as §2
Data set [6] is described as follows: carrageenan-induced inflammation in mice. The format is in vivo. The note with it: preliminary tests on mice with a carrageenan-induced inflammation. The text has this: Aim: Neolignan 4’-O-methylhonokiol (MH) isolated from Magnolia grandiflora is known to have several biological activities, including anti-cancer, anti-inflammatory and anti-neurodegenerative effects. […] The development of COX-2 inhibitor radiolabeled analogs is of special interest for PET visualization of inflammation and tumors. […] The present study describes the radiolabeling procedure of [^11C]MPbP.

For a further data set, the target named is T2, rhuPAR (human, UniProt Q03405 23-305).
T2 construct: Species read from the printed label 'rhuPAR' (recombinant human uPAR); also called membrane anchored receptor uPAR
As to the kind of experiment: ELISA; competitive bioassay: rhuPAR immobilised; ligand 0-1000 uM in the presence of 0.1 nM monoclonal mouse IgG1 antibody (clone #62022, R&D Systems) against the uPA-binding pocket of uPAR; HRP-conjugated goat anti-mouse IgG1, chromogenic substrate, read at 450 nm; assay specific IC50. Conditions: both partners purified. On the technique in general: An ELISA detects its analyte on a solid surface through an enzyme-linked reagent.

T1 sequence (P30556 whole entry): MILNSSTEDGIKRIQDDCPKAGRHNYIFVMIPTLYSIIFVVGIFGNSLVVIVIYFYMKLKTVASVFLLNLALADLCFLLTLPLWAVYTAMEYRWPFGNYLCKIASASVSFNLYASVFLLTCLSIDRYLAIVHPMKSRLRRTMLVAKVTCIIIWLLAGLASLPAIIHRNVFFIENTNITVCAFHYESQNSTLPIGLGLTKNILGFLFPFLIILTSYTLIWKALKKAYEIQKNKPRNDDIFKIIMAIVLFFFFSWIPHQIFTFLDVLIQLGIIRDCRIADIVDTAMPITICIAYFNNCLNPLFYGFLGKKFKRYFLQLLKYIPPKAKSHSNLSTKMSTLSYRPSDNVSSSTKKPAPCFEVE
T2 sequence (Q03405 23-305): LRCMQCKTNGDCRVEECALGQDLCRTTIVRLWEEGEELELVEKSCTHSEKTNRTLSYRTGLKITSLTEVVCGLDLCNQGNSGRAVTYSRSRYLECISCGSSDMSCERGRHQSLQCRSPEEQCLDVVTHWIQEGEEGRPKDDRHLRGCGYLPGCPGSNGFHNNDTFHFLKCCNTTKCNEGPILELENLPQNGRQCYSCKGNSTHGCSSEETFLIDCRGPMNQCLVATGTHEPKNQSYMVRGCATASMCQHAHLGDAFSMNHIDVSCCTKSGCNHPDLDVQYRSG
Description for LNCaP: (§3) Total cell bound [^68Ga]1 and [^68Ga]2 over time (0-90 min) was determined according to previously published methods^1,2. FACS analysis with 3 was also performed on the following cell lines T47D^+ (PSMA^+), T47D^Mock (vector only), T47D (wild type).
Description for MDA-MB-231^+: as §3
Description for PC-3^+: as §3
Description for T47D^+: as §3

For “ammoniumethyl-trifluoroborate-losartan [^18F-AmBF3-losartan]”, on AT1R, the “binding to AT1R-expressing cells” value is “specific binding”.

triacetylfusarinine C [[^68Ga]TAFC] returned a log p in data set [1] of -2.1.

For `C[C@@H](O)[C@@H]1NC(=O)[C@H](CCCN(O)C=O)NC(=O)[C@@H](NC(=O)[C@H](CCCN(O)C=O)NC(=O)[C@@H](CO)NC(=O)[C@H](CCCNC(=N)N)NC(=O)[C@@H](CO)NC(=O)[C@@H]2CCN=C3C(NC(=O)CCC(=O)O)=Cc4cc(O)c(O)cc4N32)CCCCNC(=O)[C@H]([C@@H](C)O)NC1=O` [^68Ga-pyoverdine, metal not drawn] (Suc-[X1][dS]R[dS][X2]K[X2]TT; lactam 6-C), the log p was -3.07 ± 0.08. In [2], the fraction unbound (as a rule, free concentration divided by total concentration) is more than 0.97.

On to “H2N-(Ahx)-Lys-NH-CO-NH-Glu (PSMA-11) [[^68Ga]1]”, for which the “cell binding, % given radioactivity” value in the data set with T47D^+ is ~ 2.5%; in the data set with PC-3^+, ~ 13%; with LNCaP, ~ 66%; in the data set on MDA-MB-231^+ it was ~ 80%. The “cell binding, times above control” value with T47D^+ (vs Mock or blocked controls) stood at 4 x; in the data set on PC-3^+ (vs Mock or blocked controls), 10 x; in the data set with MDA-MB-231^+ (vs Mock or blocked controls) it was 100 x.

For the molecule `O=C([O-])CN1CCN(CC(=O)[O-])CCN(CC(=O)[O-])CCN(CC(=O)[O-])CC1.[111In+3]` [^111In-DOTA], the “binding to HCC1954 cells” value in [3] is reported as “did not bind”.

In the case of `C=CCc1ccc(O)c(-c2ccc(OC)c(CC=C)c2)c1` [MH, 4’-O-methylhonokiol], the IC50 (as a rule, the concentration needed to halve the response being measured) in the data set with COX-1 was 2400 nM; in the data set with COX-2 it was 62 nM.

Regarding `c1cnc2c([O][89Zr]([O]c3cccc4cccnc34)([O]c3cccc4cccnc34)[O]c3cccc4cccnc34)cccc2c1` [^89Zr-oxine], the “labelling efficiency of RBCs” value with RBCs is recorded as “above 64.5%”.

Consider “^99mTc-HYNIC-[D-Phe,Tyr-octreotide [^99mTc-Octreotide]”, for which the effective dose in data set [4] was 3.7 mSv.

As for “MA-Cys-Tyr-Arg-Leu-Arg-BPA-Nle-Pro-Asn-Ile-OH [^99mTc labelled NPY1 short analogue, 99mTc 3+1 nitrido complex of MA-Cys-Tyr-Arg-Leu-Arg-BPA-Nle-Pro-Asn-Ile-OH]”, in “cysteine challenge”, the challenge with cysteine result is reported as “no ligand exchange”. For the same molecule, in the data set with MCF-7 cells, the “activity bound to the membrane” value turned out to be 15.2% and the activity internalised was 84.8%. Moreover, the cellular uptake in the data set on MCF-7 cells (at 4 hours) came out at 3.1±0.2.

On to `CCCC[C@@H](C(=O)N[C@@H](CC(=O)O)C(=O)N[C@@H](Cc1cccc2ccccc12)C(N)=O)N(C)C(=O)[C@H](Cc1c[nH]c2ccccc12)NC(=O)CNC(=O)[C@H](Cc1ccc(O)cc1)NC(=O)[C@H](C)NC(=O)[C@@H](CCC(=O)O)NC(=O)CN1CCN(CC(=O)O)CCN(CC(=O)O)CCN(CC(=O)O)CC1` [^111In-DOTA-MGS5, metal not drawn], for which the “internalisation into A431-CCK2R cells” value was more than 40% in the data set with A431-CCK2R cells (after 1 h) and more than 80% in the data set with A431-CCK2R cells (after 4 h). Moreover, the “stability in blood, intact peptide” value in [5] is given as more than 80%. In addition, the tissue uptake (usually the percentage of the injected dose found per gram of tissue) at 4 h in “in vivo” amounted to 23.5 ± 1.3 %ID/g.

For `CCCc1ccc(O)c(-c2ccc(O[11CH3])cc2)c1` [MPbP, 4’-[^11C]methoxy-5-propyl-1,1’-biphenyl-2-ol], the anti-inflammatory activity result in [6] is “high anti-inflammatory activity comparable to that of specific COX-2 inhibitor celecoxib”.

B1: WX-360: cyclo^21,29[D-Cys^21]-uPA_(21-30)[S21C;H29C] (peptide, UniProt P00749 41-50, looked up)
peptide: [dC]NKYFSNICW
modifications: disulfide 1-9
notes: also called the original structure; source: synthetic peptide (synthesised on solid phase)
As to B1, the binding result in the data set with rhuPAR is recorded as “binds”.
